15 molecules from PubChem BioAssay (NCI) can be followed below.

Common to all, as to assay: NCI-60 cell line screen, 48 h
For experiment [1], the system named is SW-620 colon.
Experiment [2] has as its system SF-295 CNS.
Experiment [3] deals with CCRF-CEM leukemia.
For experiment [4], the system named is OVCAR-5 ovarian.
Experiment [5] has as its system NCI-H522 lung.
The test system of experiment [6] is IGROV1 ovarian.
The subject of experiment [7] is UO-31 renal.
The subject of experiment [8] is LOX IMVI melanoma.
The subject of experiment [9] is HCT-15 colon.
Experiment [10] relates to MOLT-4 leukemia.

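A five-concentration, 48-hour dose response in 96-well plates underlies each endpoint, interpolated linearly between surrounding concentrations. GI50 marks 50% less growth. TGI denotes the concentration required for complete inhibition of growth.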

Turning to `COc1ccc(C(=O)Nc2ccc(O)c(=O)cc2)cc1`, the TGI in experiment [1] is over 100 µM; in experiment [2], over 100 µM; in [3], 72.1 µM; in experiment [4], over 100 µM; in experiment [5], 63.1 µM; in experiment [6] it was over 100 µM. Moreover, the values for the TGI in experiment [7], in experiment [8] and in experiment [9] were 47 µM, over 100 µM and 89.5 µM, respectively.
In the case of `COc1cc(C(=O)N2CCN(C(=O)c3cc(OC)c(OC)c(OC)c3)C2=S)cc(OC)c1OC`, the GI50 was 20.3 µM in experiment [1]; 19 µM in experiment [2]; 12.2 µM in [3]; 23.2 µM in experiment [4]; 3.67 µM in experiment [5]; 24.7 µM in [6]. Also, the GI50 was 23.5 µM in experiment [10], 15.4 µM in experiment [8] and 20.2 µM in [9]. Further, the TGI in experiment [1] is 46.5 µM; in [2], 43.7 µM; in experiment [3] it was 34.1 µM; in experiment [4], 57.7 µM; in experiment [5], 16.3 µM; in experiment [6] it was 56.6 µM. Besides, the TGI was determined as 12.8 µM in experiment [7], 58.4 µM in [10], 30.7 µM in experiment [8] and 47.4 µM in [9].
As to `Cc1nc(Nc2cccnc2)sc1C(=O)/C=C/c1ccc(F)cc1`, the GI50 was 2.46 µM in experiment [1]; 3.09 µM in experiment [2]; 1.4 µM in experiment [3]; 2.78 µM in experiment [4]; 2.17 µM in experiment [5]; 2.85 µM in experiment [6]. In addition, the GI50 is 2.81 µM in [7], 3.2 µM in [10], 2.36 µM in experiment [8] and 2.14 µM in experiment [9]. Also, the TGI was 6.46 µM in experiment [1]; 18.2 µM in experiment [2]; 24.7 µM in [3]; 23 µM in experiment [4]; 5.11 µM in experiment [5]; over 100 µM in experiment [6]. Moreover, the TGI in experiment [7] is 16.9 µM; in experiment [10] it was over 100 µM; in [8] it was 6.52 µM; in experiment [9], 10.2 µM.
Regarding `C[C@@H]1C[C@@H]([C@@H](CC2CC(=O)NC(=O)C2)OC(=O)CC(=O)c2ccccc2)C(=O)[C@@H](C)C1`, the GI50 in [1] was 0.512 µM; in experiment [2] it was 0.224 µM; in experiment [3] it was 0.466 µM; in experiment [4], 0.662 µM; in [5], 0.191 µM; in [6], 0.62 µM. For the same molecule, the GI50 in [7] was 0.159 µM; in [10], 0.494 µM; in experiment [8], 0.646 µM; in [9], 0.809 µM. Further, the TGI in experiment [1] was over 43.1 µM; in [2], 12.3 µM; in experiment [3] it was over 85.5 µM; in experiment [4], over 100 µM; in [5], 4.32 µM; in [7], 5.1 µM. Further, the TGI in [10], in [8] and in [9] was over 100 µM throughout.
With `Cc1cc2c(=O)c3ccccc3[nH]c2c(C(N)=O)c1C`, the TGI in experiment [1], in experiment [2], in experiment [3], in experiment [4], in experiment [5] and in experiment [6] was over 100 µM in each case. The TGI in experiment [7], in experiment [10], in [8] and in experiment [9] was over 100 µM each time.
For `O=C(/C=C/c1ccc[nH]1)c1ccc(-n2ccc(C(F)(F)F)n2)cc1`, the GI50 in experiment [1] is over 100 µM; in [2], over 25.8 µM; in experiment [3], 1.06 µM; in experiment [4], over 100 µM; in experiment [5] it was 4.08 µM; in [6] it was over 100 µM. The GI50 in experiment [7] was 0.56 µM; in experiment [10] it was 13.8 µM; in experiment [8], over 100 µM; in [9], over 100 µM. Moreover, the TGI in experiment [1], in experiment [2], in experiment [3], in [4], in experiment [5] and in [6] was over 100 µM each time. Also, the TGI is 2.4 µM in experiment [7], over 100 µM in experiment [10], over 100 µM in experiment [8] and over 100 µM in [9].
For `O=C(CC1C(=O)Nc2ccccc2S1=O)Nc1cc(Cl)ccc1Cl` (stereo not drawn), the TGI in experiment [1], in [2], in experiment [3], in experiment [4], in [5] and in [6] was over 100 µM throughout. Further, the TGI in [7], in experiment [10], in [8] and in experiment [9] was over 100 µM in each case.
Take `NC(N)=N/N=C/c1c(Cl)cccc1Cl`: the GI50 in experiment [1] was 15.8 µM; in experiment [2], 12.4 µM; in experiment [3], 28.5 µM; in experiment [4], 22.4 µM; in experiment [5] it was 25.8 µM; in experiment [6], 31.2 µM. Besides, the GI50 in experiment [7] was 16.5 µM; in experiment [10], 28.2 µM; in experiment [8], 14.4 µM; in [9] it was 26.1 µM. Also, the TGI was 30.6 µM in [1]; 30.2 µM in [2]; over 100 µM in experiment [3]; 79.8 µM in experiment [4]; 77.2 µM in experiment [5]; over 100 µM in experiment [6]. Besides, the TGI in experiment [7] is 64.7 µM; in experiment [10], 74.5 µM; in experiment [8], 30.1 µM; in experiment [9] it was over 100 µM.
For the molecule `CCOC(=O)Nc1cc2c(c(N)n1)N=C(c1ccccc1)CO2`, the GI50 was 0.0496 µM in experiment [1]; 0.224 µM in experiment [2]; 0.0653 µM in [3]; 1.15 µM in experiment [4]; 0.268 µM in [5]; 0.148 µM in experiment [6]. The GI50 is 0.459 µM in [7], 0.105 µM in experiment [10], 0.368 µM in experiment [8] and 0.0894 µM in experiment [9]. The TGI in [1] was 98.2 µM; in [2], 14.2 µM; in experiment [3], 4.42 µM; in experiment [4] it was 48.5 µM; in experiment [5], 13 µM; in experiment [6] it was 11.9 µM. The TGI in [7] was 6.53 µM; in experiment [10], over 40.7 µM; in experiment [8] it was over 100 µM; in [9] it was over 100 µM.
As for `COC(=O)[C@]12CC[C@@H](C)[C@H](C)[C@@H]1C1=CC[C@@H]3[C@@]4(C)C[C@@H](O)[C@H](O)[C@@](C)(CO)C4=CC[C@@]3(C)[C@]1(C)CC2`, the GI50 in [1] was 16.9 µM; in experiment [2], 16.7 µM; in experiment [3] it was 18.2 µM; in experiment [4], 18.3 µM; in [5], 16.2 µM; in experiment [6], 22 µM. Besides, the GI50 is 14.6 µM in experiment [7], 15.5 µM in [10], 16.8 µM in experiment [8] and 15.1 µM in experiment [9]. In addition, the TGI was found to be 34.1 µM in experiment [1]; 33.1 µM in experiment [2]; 37.1 µM in experiment [3]; 35.3 µM in experiment [4]; 33.6 µM in [5]; 43.1 µM in experiment [6]. The TGI amounted to 30.1 µM in experiment [7], 31.7 µM in experiment [10], 34.9 µM in [8] and 31 µM in [9].
Consider `CC12CCC(=O)C[C@H]1CCC(OC=O)C2Br` (stereo partly drawn), for which the TGI in experiment [1], in [2], in experiment [3], in experiment [4], in experiment [5] and in experiment [6] was over 100 µM throughout. The TGI in experiment [7], in experiment [10], in [8] and in experiment [9] was over 100 µM each time.
Consider `C/C(CC(=O)Nc1ccc(C)c(C)c1)=N\N(c1ccccc1)c1ccccc1`, for which the TGI in experiment [2] is over 100 µM; in [3] it was 64.4 µM; in experiment [4], over 100 µM; in experiment [5], 29.7 µM; in [6], over 100 µM; in experiment [7], over 100 µM. The TGI in experiment [10], in experiment [8] and in experiment [9] was over 100 µM in each case.
Regarding `CN1C(=O)c2ccccc2NC(=O)C12O[C@@H]2c1ccccc1` (stereo partly drawn), the TGI in experiment [1], in [2], in experiment [3], in experiment [4], in experiment [5] and in [6] was over 100 µM throughout. In addition, the TGI in experiment [7], in experiment [10] and in experiment [8] was over 100 µM throughout.
In the case of `CCOc1ccc(/C=C2\N=C(c3ccc([N+](=O)[O-])cc3)OC2=O)cc1`, the TGI in experiment [1], in experiment [2], in experiment [3], in experiment [4], in experiment [5] and in [6] was over 100 µM throughout. The TGI in [10], in experiment [8] and in [9] was over 100 µM each time.
For `CC(C)C1=Cc2ccc3c(c2C(=O)C1=O)CCCC3(C)C`, the TGI in [1] is 10.2 µM; in experiment [2] it was 31 µM; in experiment [3], over 100 µM; in experiment [4] it was 33.8 µM; in experiment [5] it was 3.39 µM; in experiment [6] it was 12.9 µM. Also, the TGI in experiment [7] turned out to be 13.2 µM; in experiment [8], 24.7 µM; in experiment [9], 4.42 µM.
